One assay deals with sirtuin. As to conditions: reported in Non-Patent Documents 4 and 5; cited from earlier work.
In assay [1] the target is T1, SIRT1 enzyme (Homo sapiens, UniProt Q96EB6).
T1 construct: purchased BIOMOL International (via COSMO BIO CO., LTD.) AK-555 (kit); SE-239 (enzyme)
T1 sequence (Q96EB6 1-747): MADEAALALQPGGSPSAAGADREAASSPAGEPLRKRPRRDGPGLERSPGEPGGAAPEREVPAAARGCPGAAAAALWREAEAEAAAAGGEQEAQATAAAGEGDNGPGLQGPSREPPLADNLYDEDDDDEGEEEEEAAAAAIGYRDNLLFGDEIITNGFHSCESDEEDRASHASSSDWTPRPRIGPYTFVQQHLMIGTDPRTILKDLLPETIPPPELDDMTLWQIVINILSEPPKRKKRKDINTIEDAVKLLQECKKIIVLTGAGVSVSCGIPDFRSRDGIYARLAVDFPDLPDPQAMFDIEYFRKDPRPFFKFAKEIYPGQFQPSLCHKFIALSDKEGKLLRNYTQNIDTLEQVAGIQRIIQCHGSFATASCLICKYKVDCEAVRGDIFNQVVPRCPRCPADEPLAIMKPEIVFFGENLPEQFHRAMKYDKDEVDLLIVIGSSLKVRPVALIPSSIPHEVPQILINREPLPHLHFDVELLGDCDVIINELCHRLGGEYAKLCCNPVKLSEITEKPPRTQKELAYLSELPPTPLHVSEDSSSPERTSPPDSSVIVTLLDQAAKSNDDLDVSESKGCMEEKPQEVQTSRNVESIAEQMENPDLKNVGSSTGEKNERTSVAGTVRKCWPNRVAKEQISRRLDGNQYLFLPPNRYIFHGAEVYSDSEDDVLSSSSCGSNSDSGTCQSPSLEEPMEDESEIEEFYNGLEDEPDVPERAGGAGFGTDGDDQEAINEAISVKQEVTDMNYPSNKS
The experiment in a line: SIRT1 Activity Assay/Drug Discovery kit, Fluorescent: sirtuin activity acceleration by black ginger extracts and fractions (Example 3). In kind it is biochemical. Conditions: subject sample solution 500 μg/mL, 10 μL/well; FIGS. 1 and 2. The method, then:
The sirtuin activity was measured according to the attached protocol using SIRT1 Activity Assay/Drug Discovery kit, Fluorescent (AK-555, BIOMOL International, Plymouth Meeting, Pa., USA [COSMO BIO CO., LTD., Tokyo]).
All measurement reagents (preserved at −80° C.) were stationed on ice until use to melt the SIRT1 enzyme (SE-239) and 5× Developer II (KI-176) moderately. SIRT1 enzyme was diluted to 0.2 U/μL with an assay buffer (KI-286). Resveratrol and extracts and fragments of the black ginger obtained above were used as subject samples. Solutions of 500 μg/mL were prepared using purified water for hot water extracts and the water phase fraction, and using DMSO for other samples. A solution of 10 μL/well was used for each obtained subject sample. To the control was added either DMSO or purified water instead of a subject sample. The substrate Fluor de Lys-SIRT1 (KI-177; 5 mM) plus a coenzyme NAD^+ (KI-282; 50 mM) were diluted with an assay buffer (KI-286) to obtain a concentration that is 3.33 folds that of the final usage concentration, and used in an amount of 15 μL/well. […] Then, a reaction stop solution Developer II/2 mM nicotinamide was added at 50 μL/well, and the fluorescent probe generated from Developer II was measured (excited wave length 380 nm, fluorescent wave length 460 nm) by a fluorescent plate reader (Tecan Co., Infinite 200) within 60 minutes after the reaction stopped.

Assay [2] concerns the target T1, SIRT1 enzyme. Description: SIRT1 fluorescent activity assay: sirtuin activity acceleration by polyalkoxyflavonoid compounds (Example 6). Type of assay: biochemical. Conditions: FIG. 8. The method, then:
The sirtuin activity was measured according to a protocol similar to that of Example 3.
All measurement reagents (preserved at −80° C.) were stationed on ice until use to melt the SIRT1 enzyme (SE-239) and 5× Developer II (KI-176) moderately. SIRT1 enzyme was diluted to 0.2 U/μL with an assay buffer (KI-286). Resveratrol, Compounds 1 to 5 and nobiletin (Funakoshi Co.) were used as subject samples. […] To the control was added DMSO instead of a subject sample. The substrate Fluor de Lys-SIRT1 (KI-177; 5 mM) plus a coenzyme NAD^+ (KI-282; 50 mM) was diluted with an assay buffer (KI-286) to obtain a concentration that is 3.33 folds that of the final use concentration, and used in an amount of 15 μL/well. A subject sample solution (10 μL/well), SIRT1 enzyme solution (0.2 U/μL, 5 μL/well) and an assay buffer (10 μL/well) were added to the measurement microplate and pre-incubated at 37° C. for 5 minutes. The substrate solution that was heated preliminary at 37° C. was added at 25 μL/well, then, further incubated at 37° C. for 10 minutes. Then, a reaction stop solution Developer II/2 mM nicotinamide was added at 50 μL/well, and the fluorescent probe generated from Developer II was measured (excited wave length 360 nm, fluorescent wave length 460 nm) by a fluorescent plate reader (Tecan Co., Infinite 200) within 60 minutes after the reaction stopped.

`O=c1c(O)c(-c2ccc(O)c(O)c2)oc2cc(O)ccc12` [fisetin, 3,7,3′,4′-tetrahydroxyflavone]: in the assay with sirtuin, the sirtuin activation activity result is reported as “weaker than resveratrol”.
Turning to `O=C(/C=C/c1ccc(O)c(O)c1)c1ccc(O)cc1O` [butein, 3,4,2′,4′-tetrahydroxychalcone], in the assay with sirtuin, the sirtuin activation activity entry is given as “weaker than resveratrol”.
Consider `Oc1ccc(C=Cc2cc(O)cc(O)c2)cc1` [resveratrol], for which the sirtuin activation activity entry in the assay on sirtuin was “effective in activating sirtuin”. For the same compound, at SIRT1 enzyme [1], the “sirtuin activity by comparison with the control value” is “enhanced”. Also, the SIRT1 activity entry at SIRT1 enzyme [2] (concentrations of 100 μg/mL and 20 μg/mL) was “accelerated”; at SIRT1 enzyme [2] (low concentrations of 10 μg/mL and 2 μg/mL), “almost no activity was observed”.
For `O=C(/C=C/c1ccc(O)cc1)c1ccc(O)cc1O` [isoliquiritigenin, 4,2′,4′-trihydroxychalcone], the sirtuin activation activity entry in the assay with sirtuin is reported as “weaker than resveratrol”.
For `O=c1c(O)c(-c2ccc(O)c(O)c2)oc2cc(O)cc(O)c12` [quercetin, 3,5,7,3′,4′-pentahydroxyflavone], the sirtuin activation activity result in the assay with sirtuin is given as “weaker than resveratrol”.
